Results: PMC11946255, “Extraction of Cannabinoids and Terpenes from Hemp Flowers and Leaves (Cannabis sativa L., Futura 75): Chemical Profiling and Evaluation of Anticancer Properties” (Molecules, 2025)
≈ marks a conversion by molar mass, not a printed value.

What was measured:
lung carcinoma A549 = test: Antiproliferative activity, SRB assay, A549; type: cell-based, human; conditions: for IC50 A549 / IC50: 72 h incubation, SRB, mean ± SD; for Calculated Selectivity Index SI A549: SI = IC50 MCF-10A / IC50 A549; for IC50: Homo sapiens, A549
[1] = system: colon adenocarcinoma HT-29; test: Antiproliferative activity, SRB assay, HT-29; type: cell-based, human; conditions: for IC50 HT-29 / IC50: 72 h incubation, SRB, mean ± SD; for Calculated Selectivity Index SI HT-29: SI = IC50 MCF-10A / IC50 HT-29; for IC50: Homo sapiens, HT-29
[2] = system: gastric adenocarcinoma AGS; test: Antiproliferative activity, SRB assay, AGS; type: cell-based, human; conditions: for IC50 AGS / IC50: 72 h incubation, SRB, mean ± SD; for Calculated Selectivity Index SI AGS: SI = IC50 MCF-10A / IC50 AGS; for IC50: Homo sapiens
[3] = system: breast cancer MCF-7 (ER+); test: Antiproliferative activity, SRB assay, MCF-7; type: cell-based, human; conditions: for IC50 MCF-7 / IC50: 72 h incubation, SRB, mean ± SD; for Calculated Selectivity Index SI MCF-7: SI = IC50 MCF-10A / IC50 MCF-7; for IC50: Homo sapiens, MCF7
[4] = system: normal breast epithelial MCF-10A cells; test: Cytotoxicity, SRB assay, MCF-10A; type: cell-based, human; conditions: 72 h incubation, non-tumorigenic cells, mean ± SD; for IC50: Homo sapiens, MCF-10A
Protocol: (§1) Two extracts, Futu 1 and Futu 2, were selected for the study of their antiproliferative activity against six human cancer cell lines: biphenotypic B myelomonocytic leukemia (MV4-11), lung carcinoma (A549), colon adenocarcinoma (HT-29), gastric adenocarcinoma (AGS), and breast carcinomas (MCF-7 (ER+) and MDA-MB-468 (TNBC)). Additionally, their cytotoxicity and potential safety for use were assessed on normal human breast epithelial cells (MCF-10A). This study aimed to determine the effectiveness of these extracts in inhibiting cancer cell growth while ensuring minimal toxicity to normal cells. The first extract, Futu 1, contained the highest amount of cannabinoid fraction (51.57%) among all tested extracts, and the terpene fraction consisted of 9.8% monoterpenes and 90.2% of sesquiterpenes. Futu 1 was obtained using pressurized extraction with the following process parameters: a pressure of 1 bar, a solvent mixture of hexane/ethanol (7:3, v/v), and a temperature of 25 °C. The second extract, Futu 2, was selected for its higher monoterpene content (19.6%) in the terpene fraction in comparison to sesquiterpenes (80.4%) and its 49.49% content of cannabinoids. This extract was also obtained via pressurized extraction, using a pressure of 1 bar, a solvent mixture of hexane/isopropanol (7:3, v/v), and a temperature of −55 °C. After 72 h of incubation of cancer and normal cells with cannabinoids and the extracts Futu 1 or Futu 2, antiproliferative activity was assessed using the MTT assay (for MV4-11) or the SRB assay. The percentage of cell growth inhibition was calculated and IC50 values were determined (Table 3).
(§2) Human cell lines: biphenotypic B myelomonocytic leukemia MV4-11, gastric adenocarcinoma AGS, colon adenocarcinoma HT-29, and normal breast MCF-10A cells were obtained from American Type Culture Collection (ATCC) in the United States; lung carcinoma A549 and breast cancer MCF-7 were obtained from European Collection of Authenticated Cell Cultures (ECACC). Human breast cancer MDA-MB-468 cells were obtained from Leibniz Institute DSMZ (German Collection of Microorganisms and Cell Cultures). All the cell lines were maintained at the Hirszfeld Institute of Immunology and Experimental Therapy, PAS, Wroclaw, Poland. MV4-11 and MDA-MB-468 cells were cultured in RPMI 1640 medium (IIET PAS, Wrocław, Poland) with 1.0 mM sodium pyruvate (only MV4-11) and 10% (MV4-11) or 20% (MDA-MB-468) fetal bovine serum (FBS) (all from Merck, Darmstadt, Germany). A549, HT-29, and AGS cells were cultured in RPMI 1640 + Opti-MEM (1:1) medium (IIET PAS, Wrocław, Poland, and Gibco, London, UK) supplemented with 5% FBS (Merck, Darmstadt, Germany) and 1.0 mM sodium pyruvate (only HT-29). The MCF-7 cells were cultured in Eagle medium (IIET PAS, Wrocław, Poland) supplemented with 8 microg/mL of insulin and 1% MEM NON-Essential amino acid (all Merck, Darmstadt, Germany). Normal breast epithelial MCF-10A cells were cultured in the HAM’S F-12 medium, which was supplemented with 10% Horse Serum (Gibco, London, UK), 20 ng/mL EGFh, 10 µg/mL insulin, and 0.5 µg/mL Hydrocortisone and 0.05 mg/mL Cholera Toxin from Vibrio cholerae were from Merck, Darmstadt, Germany.
The antiproliferative activity of cannabinoids (in concentrations of 1 mg/mL in methanol) and the plant extracts named Futu1 and Futu2 (the solutions were prepared by dissolving the substance in methanol to a concentration of 50 mg/mL) were tested against 6 cancer cell lines. Their cytotoxicity was also tested against one normal cell line. The tested mixtures of compounds were diluted in a culture medium to reach the final concentrations. Before adding the tested compounds (24 h prior), the cells were plated in 384-well plates (Greiner Bio-One) at a density of 1 × 10^3 (A549), 1.5 × 10^3 (MDA-MB-468, HT-29, MCF-7), or 2 × 10^3 (AGS, MCF-10A) cells per well. The MV4-11 cells were plated in 96-well plates (Corning) at a density of 5 × 10^3 cells per well. […]

[5] = system: biphenotypic B myelomonocytic leukemia MV4-11; test: Antiproliferative activity, MTT assay, MV4-11; type: cell-based, human; conditions: 2 μg/mL, 72 h, compared to untreated control cells
Protocol: as §1
as §2, with “The MCF-7 cells were cultured in Eagle medium (IIET PAS, Wrocław, Poland) supplemented with 8 microg/mL of insulin and 1% MEM NON-Essential amino acid (all Merck, Darmstadt, Germany). Normal breast epithelial MCF-10A cells were cultured in the HAM’S F-12 medium, which was supplemented with 10% Horse Serum (Gibco, London, UK), 20 ng/mL EGFh, 10 µg/mL insulin, and 0.5 µg/mL Hydrocortisone and 0.05 mg/mL Cholera Toxin from Vibrio cholerae were from Merck, Darmstadt, Germany.” left out

[6] = system: lung (A549), colon (HT-29), gastric (AGS), and breast (MCF-7, ER+) cancer cell lines; test: Antiproliferative activity, SRB assay, summarised over the cancer cell lines; type: cell-based; conditions: Homo sapiens; 72 h, range across the four cancer cell lines
Protocol: as §1, with “The second extract, Futu 2, was selected for its higher monoterpene content (19.6%) in the terpene fraction in comparison to sesquiterpenes (80.4%) and its 49.49% content of cannabinoids. This extract was also obtained via pressurized extraction, using a pressure of 1 bar, a solvent mixture of hexane/isopropanol (7:3, v/v), and a temperature of −55 °C.” left out, “3). […]” for “3).”

CCCCCc1cc(O)c2c(c1)OC(C)(C)[C@@H]1CCC(C)=C[C@@H]21 (relative stereo) [THC, (–)-trans-Δ^9-tetrahydrocannabinol]
IC50 A549 (lung carcinoma A549): 3.94 ± 0.44 mg/L (≈ 12.5 µM) | Calculated Selectivity Index SI A549 (lung carcinoma A549): 2.82 | IC50 HT-29 [1]: 3.73 ± 0.59 mg/L (≈ 11.9 µM) | Calculated Selectivity Index SI HT-29 [1]: 2.98 | IC50 AGS [2]: 6.35 ± 1.35 mg/L (≈ 20.2 µM) | Calculated Selectivity Index SI AGS [2]: 1.75 | IC50 MCF-7 [3]: 8.4 ± 1.26 mg/L (≈ 26.7 µM) | Calculated Selectivity Index SI MCF-7 [3]: 1.33 | IC50 MCF-10A [4]: 11.13 ± 0.72 mg/L (≈ 35.4 µM) | Stimulation of MV4-11 cell growth [5]: 180%

CCCCCc1cc(O)c2c(c1)OC(C)(CCC=C(C)C)C=C2 (centres unmarked) [CBC, cannabichromene]
IC50 (lung carcinoma A549): 3.26 ± 0.2 mg/L (≈ 10.4 µM) | Calculated Selectivity Index SI A549 (lung carcinoma A549): 3.23 | IC50 [1]: 5.94 ± 1.86 mg/L (≈ 18.9 µM) | Calculated Selectivity Index SI HT-29 [1]: 1.77 | IC50 [2]: 5.53 ± 0.88 mg/L (≈ 17.6 µM) | Calculated Selectivity Index SI AGS [2]: 1.9 | IC50 [3]: 7.56 ± 1.52 mg/L (≈ 24 µM) | Calculated Selectivity Index SI MCF-7 [3]: 1.39 | IC50 [4]: 10.5 ± 0.46 mg/L (≈ 33.5 µM) | Stimulation of MV4-11 cell growth [5]: 140%

C=C(C)[C@@H]1CCC(C)=C[C@H]1c1c(O)cc(CCCCC)cc1O [CBD, cannabidiol]
IC50 (lung carcinoma A549): 2.87 ± 0.24 mg/L (≈ 9.13 µM) | Calculated Selectivity Index SI A549 (lung carcinoma A549): 3.68 | IC50 [1]: 3.04 ± 0.52 mg/L (≈ 9.67 µM) | Calculated Selectivity Index SI HT-29 [1]: 3.47 | IC50 [2]: 3.74 ± 0.28 mg/L (≈ 11.9 µM) | Calculated Selectivity Index SI AGS [2]: 2.82 | IC50 [3]: 3.67 ± 0.55 mg/L (≈ 11.7 µM) | Calculated Selectivity Index SI MCF-7 [3]: 2.87 | IC50 [4]: 10.6 ± 0.63 mg/L (≈ 33.5 µM) | Stimulation of MV4-11 cell growth [5]: 140% | IC50 [6]: 2.87 to 3.74 mg/L (≈ 9.13 to 11.9 µM)

C=C(C)[C@@H]1CCC(C)=C[C@H]1c1c(O)cc(CCC)cc1O [CBDV]
IC50 A549 (lung carcinoma A549): 6.22 ± 2.26 mg/L (≈ 21.7 µM) | Calculated Selectivity Index SI A549 (lung carcinoma A549): 1.81 | IC50 HT-29 [1]: 3.6 ± 0.4 mg/L (≈ 12.6 µM) | Calculated Selectivity Index SI HT-29 [1]: 3.12 | IC50 AGS [2]: 8.4 ± 1.98 mg/L (≈ 29.3 µM) | Calculated Selectivity Index SI AGS [2]: 1.34 | IC50 MCF-7 [3]: 8.43 ± 2.05 mg/L (≈ 29.4 µM) | Calculated Selectivity Index SI MCF-7 [3]: 1.33 | IC50 MCF-10A [4]: 11.24 ± 0.26 mg/L (≈ 39.2 µM)

CCCCCc1cc(O)c(C/C=C(\C)CCC=C(C)C)c(O)c1 [CBG, cannabigerol]
IC50 (lung carcinoma A549): 3.71 ± 0.46 mg/L (≈ 11.7 µM) | Calculated Selectivity Index SI A549 (lung carcinoma A549): 2.89 | IC50 [1]: 10 ± 1.14 mg/L (≈ 31.7 µM) | Calculated Selectivity Index SI HT-29 [1]: 1.07 | IC50 [2]: 6.11 ± 1.31 mg/L (≈ 19.3 µM) | Calculated Selectivity Index SI AGS [2]: 1.76 | IC50 [3]: 7.43 ± 1.43 mg/L (≈ 23.5 µM) | Calculated Selectivity Index SI MCF-7 [3]: 1.45 | IC50 [4]: 10.7 ± 0.71 mg/L (≈ 33.9 µM)

CCCCCc1cc(O)c2c(c1)OC(C)(C)c1ccc(C)cc1-2 [CBN, cannabinol]
IC50 (lung carcinoma A549): 3.3 ± 0.15 mg/L (≈ 10.6 µM) | Calculated Selectivity Index SI A549 (lung carcinoma A549): 3.27 | IC50 [1]: 6.07 ± 2.11 mg/L (≈ 19.6 µM) | Calculated Selectivity Index SI HT-29 [1]: 1.78 | IC50 [2]: 6.18 ± 0.98 mg/L (≈ 19.9 µM) | Calculated Selectivity Index SI AGS [2]: 1.75 | IC50 [3]: 5.79 ± 1.79 mg/L (≈ 18.7 µM) | Calculated Selectivity Index SI MCF-7 [3]: 1.87 | IC50 [4]: 10.8 ± 0.68 mg/L (≈ 34.8 µM) | Stimulation of MV4-11 cell growth [5]: 140%
